Values quoted from earlier work in PMC7520961, “Safety evaluation of the interchangeable use of robenacoxib in commercially-available tablets and solution for injection in cats” (BMC Veterinary Research, 2020).

Columns and labels:
anesthetized cats = details: cited from earlier work
humans = details: in vivo; cited from earlier work

For `CCC[S+]([O-])CCCN(CC)CC(O)COc1ccc(C#N)cc1` (stereo not shown) [almokalant], the QT interval maximum (anesthetized cats; almokalant infusion) is listed as 349 ± 8.0 ms, the “lengthening of the QT interval” value (anesthetized cats; almokalant infusion) is listed as “approximately 45%” and the “QT interval before lengthening” value (anesthetized cats; before almokalant effect) is listed as 241 ± 6.0 ms.

For `CS(=O)(=O)c1ccc(C2=C(c3ccccc3)C(=O)OC2)cc1` [rofecoxib], the adverse oral reaction (humans) is given as “Oral ulceration”.
